Columns and labels:
[1] = biological target: T1, Protein deacetylase HDAC6 (Homo sapiens, UniProt Q9UBN7); assay: Inhibition of human recombinant HDAC6 using Ac-Leu-Gly-(AMC)Lys-Ac as substrate
T1 sequence (Q9UBN7 whole entry): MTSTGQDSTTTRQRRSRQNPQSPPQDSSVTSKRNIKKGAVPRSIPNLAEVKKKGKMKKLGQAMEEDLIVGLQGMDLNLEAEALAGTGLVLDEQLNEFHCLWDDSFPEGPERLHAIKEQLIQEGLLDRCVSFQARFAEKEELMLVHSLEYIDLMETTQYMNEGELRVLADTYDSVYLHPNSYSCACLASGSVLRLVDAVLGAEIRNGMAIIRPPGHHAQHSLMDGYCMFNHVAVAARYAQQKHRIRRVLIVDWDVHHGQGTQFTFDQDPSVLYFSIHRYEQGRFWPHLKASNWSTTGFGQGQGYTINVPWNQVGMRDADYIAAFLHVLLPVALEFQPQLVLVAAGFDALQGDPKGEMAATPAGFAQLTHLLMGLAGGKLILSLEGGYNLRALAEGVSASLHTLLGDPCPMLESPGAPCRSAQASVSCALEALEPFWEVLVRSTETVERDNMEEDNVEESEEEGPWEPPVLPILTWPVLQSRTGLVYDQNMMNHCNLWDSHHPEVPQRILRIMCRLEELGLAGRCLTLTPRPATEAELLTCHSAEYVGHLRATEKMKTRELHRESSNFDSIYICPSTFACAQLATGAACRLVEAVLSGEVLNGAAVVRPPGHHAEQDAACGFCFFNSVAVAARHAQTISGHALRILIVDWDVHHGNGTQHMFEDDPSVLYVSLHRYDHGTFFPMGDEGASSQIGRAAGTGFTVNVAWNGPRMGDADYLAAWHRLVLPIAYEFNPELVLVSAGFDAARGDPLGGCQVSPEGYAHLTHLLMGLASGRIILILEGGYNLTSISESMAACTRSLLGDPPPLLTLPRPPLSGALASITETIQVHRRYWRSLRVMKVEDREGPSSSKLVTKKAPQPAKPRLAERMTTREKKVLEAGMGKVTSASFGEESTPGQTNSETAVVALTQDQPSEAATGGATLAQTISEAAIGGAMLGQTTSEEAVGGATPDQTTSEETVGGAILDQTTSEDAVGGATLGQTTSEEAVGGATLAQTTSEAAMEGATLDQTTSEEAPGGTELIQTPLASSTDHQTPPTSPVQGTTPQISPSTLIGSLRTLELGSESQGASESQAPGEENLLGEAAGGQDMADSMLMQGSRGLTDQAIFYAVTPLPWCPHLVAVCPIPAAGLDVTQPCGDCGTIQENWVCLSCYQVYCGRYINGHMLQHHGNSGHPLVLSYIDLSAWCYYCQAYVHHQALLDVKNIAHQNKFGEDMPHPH

Histone deacetylase 1 [2] = biological target: T2, Histone deacetylase 1 (Homo sapiens, UniProt Q13547); assay: Inhibition of human recombinant HDAC1 using Ac-Leu-Gly-(AMC)Lys-Ac as substrate
Histone deacetylase 11 = biological target: T3, Histone deacetylase 11 (Homo sapiens, UniProt Q96DB2); assay: Inhibition of HDAC11 (unknown origin)
T3 sequence (Q96DB2 whole entry): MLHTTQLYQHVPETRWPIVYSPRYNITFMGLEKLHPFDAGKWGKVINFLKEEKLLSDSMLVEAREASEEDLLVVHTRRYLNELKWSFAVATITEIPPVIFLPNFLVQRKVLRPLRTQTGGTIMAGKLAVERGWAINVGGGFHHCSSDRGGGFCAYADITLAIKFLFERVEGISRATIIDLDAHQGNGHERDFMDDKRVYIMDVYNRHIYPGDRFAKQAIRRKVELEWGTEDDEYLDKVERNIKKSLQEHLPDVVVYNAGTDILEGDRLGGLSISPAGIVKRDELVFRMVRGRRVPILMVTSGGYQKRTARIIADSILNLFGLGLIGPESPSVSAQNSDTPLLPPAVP

Histone deacetylase 3 [3] = biological target: T4, Histone deacetylase 3 (Homo sapiens, UniProt O15379); assay: Inhibition of HDAC3 (unknown origin)
Histone deacetylase 7 = biological target: T5, Histone deacetylase 7 (Homo sapiens, UniProt Q8WUI4); assay: Inhibition of HDAC7 (unknown origin)
T5 sequence (Q8WUI4 whole entry): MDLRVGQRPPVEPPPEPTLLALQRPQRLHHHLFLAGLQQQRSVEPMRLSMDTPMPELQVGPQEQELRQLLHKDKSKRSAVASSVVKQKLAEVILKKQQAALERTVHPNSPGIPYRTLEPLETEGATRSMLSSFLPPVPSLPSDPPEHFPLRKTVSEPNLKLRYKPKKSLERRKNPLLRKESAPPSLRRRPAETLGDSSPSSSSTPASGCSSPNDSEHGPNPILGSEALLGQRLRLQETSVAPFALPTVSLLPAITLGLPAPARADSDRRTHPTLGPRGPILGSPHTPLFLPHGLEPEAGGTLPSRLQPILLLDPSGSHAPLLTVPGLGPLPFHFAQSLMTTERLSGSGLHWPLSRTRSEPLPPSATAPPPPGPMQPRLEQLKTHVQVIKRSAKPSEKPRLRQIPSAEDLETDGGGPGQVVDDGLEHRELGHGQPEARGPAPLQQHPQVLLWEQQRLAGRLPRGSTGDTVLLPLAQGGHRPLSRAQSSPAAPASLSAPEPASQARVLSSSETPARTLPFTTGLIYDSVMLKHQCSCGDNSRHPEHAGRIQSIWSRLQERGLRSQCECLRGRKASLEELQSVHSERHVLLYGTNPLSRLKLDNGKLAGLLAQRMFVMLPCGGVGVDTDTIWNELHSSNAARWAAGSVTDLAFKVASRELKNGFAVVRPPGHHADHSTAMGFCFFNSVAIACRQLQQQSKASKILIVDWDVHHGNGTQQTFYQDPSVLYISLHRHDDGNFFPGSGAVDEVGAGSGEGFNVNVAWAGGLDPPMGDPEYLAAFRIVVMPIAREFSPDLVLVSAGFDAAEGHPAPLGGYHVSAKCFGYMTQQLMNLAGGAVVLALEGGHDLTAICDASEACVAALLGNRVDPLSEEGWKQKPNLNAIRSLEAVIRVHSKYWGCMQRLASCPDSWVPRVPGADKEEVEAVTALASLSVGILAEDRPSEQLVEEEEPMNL

Histone deacetylase 2 [4] = biological target: T6, Histone deacetylase 2 (Homo sapiens, UniProt Q92769); assay: Inhibition of HDAC2 (unknown origin)
[5] = biological target: T1, Protein deacetylase HDAC6; assay: Inhibition of HDAC6 (unknown origin)
Histone deacetylase 5 = Histone deacetylase 5 (Homo sapiens, UniProt Q9UQL6); assay: Inhibition of HDAC5 (unknown origin)
[6] = biological target: T7, Polyamine deacetylase HDAC10 (Homo sapiens, UniProt Q969S8); assay: Inhibition of HDAC10 (unknown origin)
T7 sequence (Q969S8 whole entry): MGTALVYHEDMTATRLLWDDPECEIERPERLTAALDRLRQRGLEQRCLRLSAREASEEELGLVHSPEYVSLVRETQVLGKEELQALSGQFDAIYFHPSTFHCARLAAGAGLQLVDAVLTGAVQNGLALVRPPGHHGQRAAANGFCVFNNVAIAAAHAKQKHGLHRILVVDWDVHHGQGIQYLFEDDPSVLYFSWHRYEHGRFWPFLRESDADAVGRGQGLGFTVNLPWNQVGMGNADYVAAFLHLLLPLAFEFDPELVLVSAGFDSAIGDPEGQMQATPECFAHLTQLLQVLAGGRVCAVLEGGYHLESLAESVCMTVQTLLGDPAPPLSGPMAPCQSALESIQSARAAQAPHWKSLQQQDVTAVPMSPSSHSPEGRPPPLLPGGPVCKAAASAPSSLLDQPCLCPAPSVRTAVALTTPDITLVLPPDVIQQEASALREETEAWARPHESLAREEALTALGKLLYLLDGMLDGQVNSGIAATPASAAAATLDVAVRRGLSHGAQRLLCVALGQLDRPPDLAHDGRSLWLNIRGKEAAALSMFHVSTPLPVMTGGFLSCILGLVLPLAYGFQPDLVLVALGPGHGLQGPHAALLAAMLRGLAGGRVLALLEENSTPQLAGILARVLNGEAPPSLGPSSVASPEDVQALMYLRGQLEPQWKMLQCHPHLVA

Histone deacetylase 1 [7] = biological target: T2, Histone deacetylase 1; assay: Inhibition of HDAC1 (unknown origin)
Histone deacetylase 8 [8] = biological target: T8, Histone deacetylase 8 (Homo sapiens, UniProt Q9BY41); assay: Inhibition of HDAC8 (unknown origin)
T8 sequence (Q9BY41 whole entry): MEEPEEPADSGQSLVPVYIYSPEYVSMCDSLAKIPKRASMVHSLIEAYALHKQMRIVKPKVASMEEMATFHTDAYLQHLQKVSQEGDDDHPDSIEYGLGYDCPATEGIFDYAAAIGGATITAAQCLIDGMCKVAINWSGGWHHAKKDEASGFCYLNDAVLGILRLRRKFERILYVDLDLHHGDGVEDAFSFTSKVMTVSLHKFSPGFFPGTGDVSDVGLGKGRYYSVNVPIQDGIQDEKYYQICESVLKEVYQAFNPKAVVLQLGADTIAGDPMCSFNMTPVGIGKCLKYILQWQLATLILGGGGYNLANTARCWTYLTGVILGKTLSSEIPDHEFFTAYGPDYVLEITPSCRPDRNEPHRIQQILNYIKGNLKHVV

Histone deacetylase 6 = biological target: T9, Histone deacetylase 6 (Rattus norvegicus, UniProt Q99P97); assay: Inhibition of FLAG-tagged HDAC6 in rat liver extract using alpha-Ac tubulin as substrate
T9 sequence (Q99P97 whole entry): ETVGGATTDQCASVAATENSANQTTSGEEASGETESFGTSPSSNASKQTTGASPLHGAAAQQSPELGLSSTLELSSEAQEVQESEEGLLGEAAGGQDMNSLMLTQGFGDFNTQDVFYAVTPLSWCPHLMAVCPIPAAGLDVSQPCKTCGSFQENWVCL

Histone deacetylase 1 [9] = biological target: Histone deacetylase 1 (Rattus norvegicus, UniProt Q4QQW4); assay: Inhibition of FLAG-tagged HDAC1 in rat liver extract using fluorescent small molecule as substrate
Histone deacetylase 2 [10] = biological target: T6, Histone deacetylase 2; assay: Inhibition of His-6-tagged full length HDAC2 (unknown origin) expressed in sf9 cells using carboxyfluorescein (FAM)-labeled acetylated peptide as substrate after 17 hrs by fluorescence-based electrophoretic assay
[11] = biological target: T1, Protein deacetylase HDAC6; assay: Inhibition of His-6-tagged full length HDAC6 (unknown origin) expressed in sf9 cells using carboxyfluorescein (FAM)-labeled acetylated peptide as substrate after 17 hrs by fluorescence-based electrophoretic assay
Histone deacetylase 1 [12] = biological target: T2, Histone deacetylase 1; assay: Inhibition of His-6-tagged full length HDAC1 (unknown origin) expressed in sf9 cells using carboxyfluorescein (FAM)-labeled acetylated peptide as substrate after 17 hrs by fluorescence-based electrophoretic assay
[13] = biological target: T7, Polyamine deacetylase HDAC10; assay: Inhibition of C-terminal deleted 38 amino acids (632 to 669) HDAC10 (unknown origin) expressed in sf9 cells using carboxyfluorescein (FAM)-labeled acetylated peptide as substrate after 17 hrs by fluorescence-based electrophoretic assay
Histone deacetylase 8 [14] = biological target: T8, Histone deacetylase 8; assay: Inhibition of His-6-tagged full length HDAC8 (unknown origin) expressed in sf9 cells using carboxyfluorescein (FAM)-labeled acetylated peptide as substrate after 17 hrs by fluorescence-based electrophoretic assay
Histone deacetylase 3 [15] = biological target: T4, Histone deacetylase 3; assay: Inhibition of His-6-tagged full length HDAC3 (unknown origin) expressed in sf9 cells and co-expressed in SMRT gene (395 to 489) using carboxyfluorescein (FAM)-labeled acetylated peptide as substrate after 17 hrs by fluorescence-based electrophoretic assay

T6 sequence (Q92769 whole entry): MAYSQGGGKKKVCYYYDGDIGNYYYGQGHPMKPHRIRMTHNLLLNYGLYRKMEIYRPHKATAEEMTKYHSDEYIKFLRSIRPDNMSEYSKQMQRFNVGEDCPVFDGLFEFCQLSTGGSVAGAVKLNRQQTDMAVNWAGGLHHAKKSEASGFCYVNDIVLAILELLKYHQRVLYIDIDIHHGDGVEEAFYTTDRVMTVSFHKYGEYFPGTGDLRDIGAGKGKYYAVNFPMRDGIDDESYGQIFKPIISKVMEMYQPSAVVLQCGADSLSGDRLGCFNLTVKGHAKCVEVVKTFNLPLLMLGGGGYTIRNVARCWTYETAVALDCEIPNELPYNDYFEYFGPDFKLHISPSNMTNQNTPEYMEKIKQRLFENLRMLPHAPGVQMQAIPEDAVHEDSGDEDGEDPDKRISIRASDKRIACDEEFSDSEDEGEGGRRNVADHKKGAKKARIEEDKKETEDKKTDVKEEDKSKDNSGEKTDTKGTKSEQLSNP
T4 sequence (O15379 whole entry): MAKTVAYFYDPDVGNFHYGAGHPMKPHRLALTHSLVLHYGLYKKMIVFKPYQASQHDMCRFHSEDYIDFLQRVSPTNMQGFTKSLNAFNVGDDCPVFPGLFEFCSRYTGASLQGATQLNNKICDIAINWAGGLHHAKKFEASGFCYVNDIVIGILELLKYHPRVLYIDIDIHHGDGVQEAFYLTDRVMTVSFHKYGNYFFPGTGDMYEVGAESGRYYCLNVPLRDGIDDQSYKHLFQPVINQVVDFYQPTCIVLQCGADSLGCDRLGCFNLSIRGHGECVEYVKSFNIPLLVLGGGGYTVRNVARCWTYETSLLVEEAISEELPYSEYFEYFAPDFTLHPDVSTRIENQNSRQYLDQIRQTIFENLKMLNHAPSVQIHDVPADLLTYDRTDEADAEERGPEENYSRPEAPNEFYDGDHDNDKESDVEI
T2 sequence (Q13547 whole entry): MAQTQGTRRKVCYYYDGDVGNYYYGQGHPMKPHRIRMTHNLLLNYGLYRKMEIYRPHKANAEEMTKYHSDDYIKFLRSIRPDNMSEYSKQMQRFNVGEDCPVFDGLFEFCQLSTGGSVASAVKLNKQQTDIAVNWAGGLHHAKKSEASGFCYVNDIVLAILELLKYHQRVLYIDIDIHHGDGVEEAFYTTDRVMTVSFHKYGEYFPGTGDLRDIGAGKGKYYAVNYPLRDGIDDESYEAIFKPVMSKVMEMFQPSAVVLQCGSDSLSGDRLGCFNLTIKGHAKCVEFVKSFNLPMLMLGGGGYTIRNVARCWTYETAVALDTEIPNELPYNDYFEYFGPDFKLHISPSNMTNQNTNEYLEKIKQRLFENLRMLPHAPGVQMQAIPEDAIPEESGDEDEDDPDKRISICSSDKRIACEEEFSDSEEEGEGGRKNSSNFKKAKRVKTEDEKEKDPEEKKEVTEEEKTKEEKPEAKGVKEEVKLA
Chain of Histone deacetylase 5 (Q9UQL6 whole entry): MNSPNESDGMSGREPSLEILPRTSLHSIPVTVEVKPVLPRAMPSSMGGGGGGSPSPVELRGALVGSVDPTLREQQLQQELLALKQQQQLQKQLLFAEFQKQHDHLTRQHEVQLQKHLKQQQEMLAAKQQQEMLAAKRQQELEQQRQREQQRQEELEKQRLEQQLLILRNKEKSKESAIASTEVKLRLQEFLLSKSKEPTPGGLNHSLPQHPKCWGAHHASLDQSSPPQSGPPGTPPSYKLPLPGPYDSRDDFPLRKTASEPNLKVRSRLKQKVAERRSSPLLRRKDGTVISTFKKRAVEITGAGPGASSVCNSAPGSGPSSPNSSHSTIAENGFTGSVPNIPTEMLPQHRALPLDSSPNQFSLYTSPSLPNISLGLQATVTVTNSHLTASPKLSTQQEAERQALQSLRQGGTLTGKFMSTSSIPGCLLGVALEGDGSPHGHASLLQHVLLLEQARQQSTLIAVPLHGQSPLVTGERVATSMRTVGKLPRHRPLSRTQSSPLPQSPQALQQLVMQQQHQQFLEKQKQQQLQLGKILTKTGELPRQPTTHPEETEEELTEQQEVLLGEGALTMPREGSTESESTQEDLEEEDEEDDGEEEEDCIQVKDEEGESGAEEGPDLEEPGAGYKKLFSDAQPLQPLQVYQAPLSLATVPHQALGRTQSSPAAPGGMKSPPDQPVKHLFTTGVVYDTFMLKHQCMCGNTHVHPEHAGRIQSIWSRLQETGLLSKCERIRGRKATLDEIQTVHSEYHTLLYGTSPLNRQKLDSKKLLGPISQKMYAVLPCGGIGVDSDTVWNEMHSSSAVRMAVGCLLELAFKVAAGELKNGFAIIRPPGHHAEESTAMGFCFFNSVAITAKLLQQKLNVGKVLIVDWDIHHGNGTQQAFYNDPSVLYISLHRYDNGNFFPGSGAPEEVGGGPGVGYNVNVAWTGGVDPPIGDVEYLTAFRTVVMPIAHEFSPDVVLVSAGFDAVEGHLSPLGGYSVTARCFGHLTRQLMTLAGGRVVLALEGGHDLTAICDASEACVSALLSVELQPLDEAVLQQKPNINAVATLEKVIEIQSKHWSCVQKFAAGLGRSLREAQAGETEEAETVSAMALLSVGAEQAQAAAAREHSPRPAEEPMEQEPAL
Chain of Histone deacetylase 1 (Rattus norvegicus, UniProt Q4QQW4) (Q4QQW4 whole entry): as the sequence (Q13547 whole entry) above, with R8K, D399E, E424D, L481M counted along it

Row | IC50 (Histone deacetylase 2 [10]) | IC50 [11] | IC50 (Histone deacetylase 1 [12]) | IC50 [13] | IC50 (Histone deacetylase 8 [14]) | Compound | IC50 (Histone deacetylase 11) | IC50 (Histone deacetylase 3 [3]) | IC50 (Histone deacetylase 7) | IC50 (Histone deacetylase 2 [4]) | IC50 [5] | IC50 (Histone deacetylase 5) | also measured
1 |  |  |  |  |  | O=C(NC1=CC(=O)c2ccccc2C1=O)c1ccccc1 |  |  |  |  |  |  | IC50 [1]: 5540 nM; IC50 (Histone deacetylase 1 [2]): > 180000 nM
2 |  |  |  |  |  | O=C(CS)NCCCCCC(=O)Nc1cccc2cccnc12 | 610 nM | 1320 nM | 2780 nM | 1250 nM | 21 nM | 890 nM | 
3 |  |  |  |  |  | O=C(CCCCCNC(=O)NC12CC3CC(CC(C3)C1)C2)NO | 190 nM | 1560 nM | 1290 nM | 2580 nM | 73 nM | 310 nM | IC50 [6]: 270 nM; IC50 (Histone deacetylase 1 [7]): 580 nM; IC50 (Histone deacetylase 8 [8]): 6800 nM
4 |  |  |  |  |  | COC(=O)[C@H](Cc1ccccc1)NC(=O)CCCCCCCCC(=O)NO |  |  |  |  |  |  | IC50 (Histone deacetylase 6): 910 nM; IC50 (Histone deacetylase 1 [9]): 28600 nM
5 | 193 nM | 16 nM | 52 nM | 70 nM | 2660 nM | O=C(CCCCCCC(=O)Nc1ccc(-c2ccccc2NC(=O)[C@@H]2CCCN2)cc1)NO |  |  |  |  |  |  | 
6 | 21 nM | < 0.2 nM | 4 nM | 6 nM | 2580 nM | CC(C)(C)OC(=O)Nc1cccc(-c2csc(NC(=O)CCCCCCC(=O)NO)n2)c1 |  |  |  |  |  |  | IC50 (Histone deacetylase 3 [15]): 2 nM
